Test: Krafft point of aqueous dispersion of aldonamide
Format: physicochemical
Settings: 0.1% in water by weight
Experimental: The temperature at and above which surfactants begin to form micelles instead of precipitates is referred to as the Krafft point (Tk) and at this temperature the solubility of a surfactant becomes equal to its CMC (numerical value at which micelles are formed).
The Krafft point was measured by preparing 650 ml of a 0.1% or 1.0% dispersion of aldonamide in water by weight. If the surfactant was soluble at room temperature, the solution was slowly cooled to 0° C. […] (less than zero). If it precipitated out of solution, the temperature at which precipitation occurs was taken as the Krafft point.
If the surfactant was insoluble at :room temperature, the dispersion was slowly heated until the solution became homogeneous. It was then slowly cooled until precipitation occurred. The temperature at which the surfactant precipitates out of solution upon cooling was taken as the Krafft point.
In the case of `CCCCCCCCCCCC(=O)OCCNC(=O)[C@H](O)[C@@H](O)[C@H](O)[C@H](O)CO` [X, N-D-gluconyl dodecyl ester of ethanolamine], the “Krafft Point (0.1%)” value is reported as 63 °C. With `CCCCCCCCCCCCNC(=O)C(O)C(O)C(O)C(O)C(O)C(O)CO` [FF, C12 D-Glucooctonamide] the “Krafft Point (0.1%)” value was 86 °C. In the case of octyl/decyloxypropyl D-ribonamide, the “Krafft Point (0.1%)” value is reported as 10 °C. In the case of `CCCCCCCCCCCCOCCOCCOC(=O)CNC(=O)[C@H](O)[C@@H](O)[C@H](O)[C@H](O)CO` [Z, N-D-Gluconyl Dodecyldi(oxyethyl) Glycinate], the “Krafft Point (0.1%)” value is reported as under 0 °C. In the case of `CCCCCCCNC(=O)[C@H](O)[C@@H](O)[C@H](O)[C@H](O)CO` [C, C7 D-Gluconamide], the “Krafft Point (0.1%)” value is reported as under 0 °C. In the case of “dodecyl to pentadecyloxypropyl D-gluconamide”, the “Krafft Point (0.1%)” value is reported as 58 °C. With `CCCCCCCCCCCCCCOCCCNC(=O)[C@H](O)[C@@H](O)[C@H](O)[C@H](O)CO` [V, C14 Oxypropyl D-Gluconamide] the “Krafft Point (0.1%)” value was 53 °C. For Iso C13 Oxypropyl D-Gluconamide [T], the “Krafft Point (0.1%)” value was under 15 °C. In the case of `CCCCCCCC/C=C\CCCCCCCCNCCCNC(=O)[C@H](O)[C@@H](O)[C@H](O)[C@H](O)CO` [CC, oleylaminopropyl D-gluconamide], the “Krafft Point (0.1%)” value is reported as under 0 °C. With `CCCCCCCCCCCNC(=O)[C@H](O)[C@@H](O)[C@H](O)[C@H](O)CO` [G, C11 D-Gluconamide] the “Krafft Point (0.1%)” value was 87 °C. In the case of `CCCCCCCCCCCCOCCCNC(=O)[C@H](O)[C@@H](O)[C@H](O)[C@H](O)CO` [Entry S, C12 Oxypropyl D-Gluconamide], the “Krafft Point (0.1%)” value is reported as 61 °C. In the case of `CCCCCCCCNC(=O)[C@H](O)[C@@H](O)[C@H](O)[C@H](O)CO` [D, C8 D-Gluconamide], the “Krafft Point (0.1%)” value is reported as 12 °C. With `CCCCC(CC)COCCCNC(=O)[C@H](O)[C@@H](O)[C@H](O)[C@H](O)CO` (stereo partly drawn) [P, Ethylhexyloxypropyl D-Gluconamide] the “Krafft Point (0.1%)” value was under 0 °C. In the case of `CCCCCCCCCCCCOC(=O)C(C)NC(=O)[C@H](O)[C@@H](O)[C@H](O)[C@H](O)CO` (mixture of isomers) [Y, N-D-Gluconyl Dodecyl DL-Alaninate], the “Krafft Point (0.1%)” value is reported as 53 °C. For `CCCCCCCCCCCCNC(=O)[C@H](O)[C@H](O)[C@@H](O)[C@H](O)[C@H](O)CO` [HH, C12 D-Glucoheptonamide], the “Krafft Point (0.1%)” value was 91 °C. With cocoaminopropyl D-gluconamide [AA] the “Krafft Point (0.1%)” value was 18 °C. In the case of “dodecyl to pentadecyloxypropylaminopropyl D-gluconamide [EE]”, the “Krafft Point (0.1%)” value is reported as under 0 °C. For `CCCCCCCCCCCCOC(=O)CNC(=O)[C@H](O)[C@@H](O)[C@H](O)[C@H](O)CO` [W, N-D-gluconyl dodecyl glycinate], the “Krafft Point (0.1%)” value was 63 °C. For `CCCCCCCCCCCCNC(=O)[C@H](O)[C@H](O)[C@H](O)CO` [A, dodecyl D-ribonamide], the “Krafft Point (0.1%)” value was 54 °C. With `CCCCCCCCCCNC(=O)[C@H](O)[C@@H](O)[C@H](O)[C@H](O)CO` [F, C10 D-Gluconamide] the “Krafft Point (0.1%)” value was 75 °C. For soyaaminopropyl D-gluconamide [BB], the “Krafft Point (0.1%)” value was under 18 °C. For `CCCCCCCCCCCCOCCCNC(=O)[C@H](O)[C@H](O)[C@@H](O)[C@H](O)[C@H](O)CO` [KK, C12 Oxypropyl D-Glucoheptonamide], the “Krafft Point (0.1%)” value was 73 °C. In the case of `CCCCCCCCCNC(=O)[C@H](O)[C@@H](O)[C@H](O)[C@H](O)CO` [E, C9 D-Gluconamide], the “Krafft Point (0.1%)” value is reported as 53 °C. With `CCCCCCCCCCCCNC(=O)[C@@H](O)[C@H](O)[C@@H](O)[C@@H](O)CO` [I, C12 L-Gluconamide] the “Krafft Point (0.1%)” value was 91 °C.

Same assay, conditions: 1.0% in water by weight
In the case of `CCCCCCCCCCCCOC(=O)CCNC(=O)[C@H](O)[C@@H](O)[C@H](O[C@@H]1O[C@H](CO)[C@H](O)[C@H](O)[C@H]1O)[C@H](O)CO` [BBB, N-D-lactobionyl dodecyl β-alaninate], the “Krafft Point (1.0%)” value is reported as under 0 °C. In the case of `CCCCCCCCCCCCOCCCNC(=O)[C@H](O)[C@@H](O)[C@H](O[C@@H]1O[C@H](CO)[C@H](O)[C@H](O)[C@H]1O)[C@H](O)CO` [WW, dodecyloxypropyl D-lactobionamide], the “Krafft Point (1.0%)” value is reported as under 0 °C. For `CCCCCCCCCCCCCCCCNC(=O)[C@H](O)[C@@H](O)[C@H](O[C@@H]1O[C@H](CO)[C@H](O)[C@H](O)[C@H]1O)[C@H](O)CO` [TT, C16 D-Lactobionamide], the “Krafft Point (1.0%)” value was 64 °C. For `CCCCCCCCCNC(=O)[C@H](O)[C@@H](O)[C@H](O[C@@H]1O[C@H](CO)[C@H](O)[C@H](O)[C@H]1O)[C@H](O)CO` [MM, nonyl D-lactobionamide], the “Krafft Point (1.0%)” value was 42 °C. In the case of `CCCCCCCCCCCCCCOCCCNC(=O)[C@H](O)[C@@H](O)[C@H](O[C@@H]1O[C@H](CO)[C@H](O)[C@H](O)[C@H]1O)[C@H](O)CO` [ZZ, tetradecyloxypropyl D-lactobionamide], the “Krafft Point (1.0%)” value is reported as under 0 °C. With `CCCCCCCCCCCCCCNC(=O)[C@H](O)[C@@H](O)[C@H](O[C@@H]1O[C@H](CO)[C@H](O)[C@H](O)[C@H]1O)[C@H](O)CO` [QQ, C14 D-Lactobionamide] the “Krafft Point (1.0%)” value was 18 °C. In the case of “dodecyl to pentadecyloxypropylaminopropyl D-lactobionamide [EEE]”, the “Krafft Point (1.0%)” value is reported as under 0 °C. In the case of `CCCCCCCCCCCNC(=O)[C@H](O)[C@@H](O)[C@H](O[C@@H]1O[C@H](CO)[C@H](O)[C@H](O)[C@H]1O)[C@H](O)CO` [NN, C11 D-Lactobionamide], the “Krafft Point (1.0%)” value is reported as 61 °C. In the case of `CCCCCCCCCCCCOCCCNC(=O)[C@H](O)[C@@H](O)[C@H](O[C@H]1O[C@H](CO)[C@@H](O)[C@H](O)[C@H]1O)[C@H](O)CO` [XX, dodecyloxypropyl D-maltobionamide], the “Krafft Point (1.0%)” value is reported as under 0 °C. With `CCCCCCCCCCCCCCNC(=O)[C@H](O)[C@@H](O)[C@H](O[C@H]1O[C@H](CO)[C@@H](O)[C@H](O)[C@H]1O)[C@H](O)CO` [RR, C14 D-Maltobionamide] the “Krafft Point (1.0%)” value was 46 °C. With cocoaminopropyl D-lactobionamide [CCC] the “Krafft Point (1.0%)” value was under 0 °C. With `CCCCCCCCCCCCCNC(=O)[C@H](O)[C@@H](O)[C@H](O[C@@H]1O[C@H](CO)[C@H](O)[C@H](O)[C@H]1O)[C@H](O)CO` [PP, C13 D-Lactobionamide] the “Krafft Point (1.0%)” value was 70 °C. For `CCCCCCCCCCCCOC(=O)CNC(=O)[C@H](O)[C@@H](O)[C@H](O[C@@H]1O[C@H](CO)[C@H](O)[C@H](O)[C@H]1O)[C@H](O)CO` [AAA, N-D-lactobionyl dodecyl glycinate], the “Krafft Point (1.0%)” value was under 0 °C. In the case of “dodecyl to pentadecyloxypropyl D-lactobionamide [YY]”, the “Krafft Point (1.0%)” value is reported as under 0 °C. For `CCCCCCCCCCCCNC(=O)[C@H](O)[C@@H](O)[C@H](O[C@@H]1O[C@H](CO)[C@H](O)[C@H](O)[C@H]1O)[C@H](O)CO` [OO, C12 D-Lactobionamide], the “Krafft Point (1.0%)” value was 38 °C. With “octyl/decyloxypropyl D-lactobionamide [VV]” the “Krafft Point (1.0%)” value was under 0 °C.

Test: Ross-Miles foam height
Format: physicochemical
Set-up: key: X: low water solubility. foam height cannot be measured
Settings: after 10 minutes; Examples 82-83
Experimental: Since most of the foaming data on surfactants is typically obtained by the Ross-Miles Foam Height Assay (Ross, J. and Miles, G. D. Am Soc. for Testing Material Method D1173-63 Philadelphia, Pa. (1953); Oil & Soap (1958) 62:1260) the foaming ability of these surfactants were acquired using this method.
In the Ross-Miles method, 200 mL of a surfactant solution contained in a pipette of specified dimensions with a 2.9-mm-i.d. orifice is allowed to fall 90 cm onto 50 mL of the same solution contained in a cylindrical vessel maintained at a given temperature by means of a water jacket. The height of the foam produced in the cylindrical vessel is read immediately after all the solution has run out of the pipette and then again after a given amount of time.
Using this method, the foam production (initial foam height in mm) and foam stability (final foam height after 10 minutes in mm) were measured at 0.1% aldonamide concentration, 40° C. and 0 ppm (parts per million) hardness. Aldonamides that were not soluble at 40° C. were measured at about 5°-10° C. above their Krafft points.
With `CCCCCCCCCCCCNC(=O)C(O)C(O)C(O)C(O)C(O)C(O)CO` [FF, C12 D-Glucooctonamide] the “Foam Height Final (symbol)” value was “X”. With `CCCCCCCCCCCNC(=O)[C@H](O)[C@@H](O)[C@H](O)[C@H](O)CO` [G, C11 D-Gluconamide] the “Foam Height Final (symbol)” value was “X”. In the case of `CCCCCCCCCCCCNC(=O)[C@H](O)[C@H](O)[C@@H](O)[C@H](O)[C@H](O)CO` [HH, C12 D-Glucoheptonamide], the “Foam Height Final (symbol)” value is reported as “X”. For `CCCCCCCCCCCCNC(=O)[C@@H](O)[C@H](O)[C@@H](O)[C@@H](O)CO` [I, C12 L-Gluconamide], the “Foam Height Final (symbol)” value was “X”.

Same assay, conditions: initial; Examples 82-83
For `CCCCCCCCCCCCNC(=O)C(O)C(O)C(O)C(O)C(O)C(O)CO` [FF, C12 D-Glucooctonamide], the “Foam Height Initial (symbol)” value was “X”. For `CCCCCCCCCCCNC(=O)[C@H](O)[C@@H](O)[C@H](O)[C@H](O)CO` [G, C11 D-Gluconamide], the “Foam Height Initial (symbol)” value was “X”. With `CCCCCCCCCCCCNC(=O)[C@H](O)[C@H](O)[C@@H](O)[C@H](O)[C@H](O)CO` [HH, C12 D-Glucoheptonamide] the “Foam Height Initial (symbol)” value was “X”. For `CCCCCCCCCCCCNC(=O)[C@@H](O)[C@H](O)[C@@H](O)[C@@H](O)CO` [I, C12 L-Gluconamide], the “Foam Height Initial (symbol)” value was “X”.

Source: patent US5521293A (Lever Brothers Company, Division of Conopco, Inc., priority 1995, dated 1996)
